Laboratory results published in patent USRE30241E, “Esters of 3-(hydroxy or hydroxymethyl)-4-hydroxyphenyl aminomethyl ketones” (Sterling Drug Inc., priority 1970, dated 1980).
Where two headings read alike, the source gives them in different places. Blank lines part the entries; values can stand above or below the compound they belong to.

What was measured:
[1] = test system: carbachol- or histamine-induced bronchoconstriction; test: Bronchodilator Test Method I, anesthetized dog, intravenous activity; format: in vivo; conditions: Canis lupus familiaris, read-out: Bronchodilatation; for inhibition in vivo at 0.0055 mg/kg: 5.5 mcg/kg i.v.; for inhibition in vivo at 0.0056 mg/kg: 5.6 mcg/kg i.v.; for inhibition in vivo at 0.0112 mg/kg: 11.2 mcg/kg i.v.; for inhibition in vivo at 0.112 mg/kg: 112.0 mcg/kg i.v.; for inhibition in vivo at 0.0224 mg/kg: 22.4 mcg/kg i.v.
Outline: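 Pentobarbital-anesthetized (30 mg/kg i.v.), open-chest, artificially ventilated dogs were given i.v. carbachol (4-6 µg/kg) or histamine diphosphate (35-45 µg/kg). Test compound was given i.v. mixed with, after, or 1-10 min before the constrictor.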

[2] = test system: guinea pig bronchioles constricted by carbachol; test: Bronchodilator Test Method II, in vitro perfused guinea pig lung; conditions: for ED50: carbachol (Doryl) 1:5 million
Experimental: In this method bronchodilator activity in vitro was determined by testing the effect of graded doses of the test compounds on guinea pig bronchioles constricted by carbachol, using the technique reported by Sollman and von Oettingen, Proc. Soc, Exp. Biol. Med., 25,692 (1928) as modified by Tainter, Pedden, and James, J. Pharm. Exp. Ther., 51, 371 (1934) and by Luduena, von Euler, Tullar, and Lands, Arch. intern. Pharmacol., III, 392 (1957).

[3] = Solubility and pH of salts; conditions: for solubility: water

pH of a 1 percent aqueous solution ([3]; 1 percent aqueous solution of the salt): 5.4 | precipitation on raising pH to 7.0 ([3]; 1 percent aqueous solution, N/10 sodium hydroxide to pH 7.0): a precipitate formed | solubility [3]: ≥ 200 mg/mL
Structure (SMILES): CC(C)CC(=O)Oc1ccc(C(O)CNC(C)(C)C)cc1OC(=O)CC(C)C.Cl (stereo not drawn) [Example 3, 3,4-bis(isovaleryloxy)-alpha-(tert-butylaminomethyl)-benzyl alcohol hydrochloride]
inhibition in vivo at 0.00055 mg/kg ([1]; 1 min, 0.55 mcg/kg i.v., 1-2 min): 32% | inhibition in vivo at 0.0011 mg/kg ([1]; 1 min, 1.1 mcg/kg i.v., 1-2 min): 54% | inhibition in vivo at 0.0022 mg/kg ([1]; 1 min, 2.2 mcg/kg i.v., 1-2 min): 74% | ED50 [2]: 0.6 µg (base) | Duration, Mean ([2]; dose 1.2 mcg (base)): 18 ± 4 min

solubility [3]: ≥ 50 mg/mL
Structure (SMILES): CCC(C)C(=O)Oc1ccc(C(O)CNC(C)(C)C)cc1OC(=O)C(C)CC.Cl (stereo not drawn) [Example 4, 3,4-bis(2-methylbutanoyloxy)-alpha-(tert-butylaminomethyl)benzyl alcohol hydrochloride]
inhibition in vivo at 0.0055 mg/kg ([1]; 2 min, 2 min): 48% | inhibition in vivo at 0.0055 mg/kg ([1]; 0.5 h, 30 min): 5% | inhibition in vivo at 0.0055 mg/kg ([1]; 1 h, 60 min): 0% | ED50 [2]: 0.45 µg (base) | Duration, Mean ([2]; dose 1 mcg (base)): 20 ± 3 min

solubility [3]: ≥ 50 mg/mL
Structure (SMILES): CC(C)(C)NCC(O)c1ccc(OC(=O)C(C)(C)C)c(OC(=O)C(C)(C)C)c1.Cl (stereo not drawn) [Example 5, 3,4-bis(pivalyloxy)-alpha-(tert-butylaminomethyl)benzyl alcohol hydrochloride]
inhibition in vivo at 0.0028 mg/kg ([1]; 5 min, 2.8 mcg/kg i.v., 5 min): 14% | inhibition in vivo at 0.0056 mg/kg ([1]; 5 min, 5 min): 53% | inhibition in vivo at 0.0112 mg/kg ([1]; 5 min, 5 min): 57% | inhibition in vivo at 0.112 mg/kg ([1]; 5 min, 5 min): 100% | inhibition in vivo at 0.0056 mg/kg ([1]; 0.5 h, 30 min): 27% | inhibition in vivo at 0.0112 mg/kg ([1]; 0.5 h, 30 min): 30% | inhibition in vivo at 0.0224 mg/kg ([1]; 0.5 h, 30 min): 81% | inhibition in vivo at 0.112 mg/kg ([1]; 0.5 h, 30 min): 92% | inhibition in vivo at 0.0056 mg/kg ([1]; 1 h, 60 min): 26% | inhibition in vivo at 0.0112 mg/kg ([1]; 1 h, 60 min): 4% | inhibition in vivo at 0.0224 mg/kg ([1]; 1 h, 60 min): 62% | inhibition in vivo at 0.112 mg/kg ([1]; 1 h, 60 min): 59% | inhibition in vivo at 0.0224 mg/kg ([1]; 2 h, 120 min): 62% | inhibition in vivo at 0.112 mg/kg ([1]; 2 h, 120 min): 13% | inhibition in vivo at 0.0224 mg/kg ([1]; 3 h, 180 min): 15% | inhibition in vivo at 0.0224 mg/kg ([1]; 4 h, 240 min): 0% | ED50 ([2]; hydrochloride): 0.94 µg (base) | Duration, Mean ([2]; dose 2 mcg (base)): 18 ± 4.2 min

Structure (SMILES): CC(C)CC(=O)Oc1ccc(C(O)CNC(C)(C)C)cc1O (stereo not drawn) [Example 58, 3-hydroxy-4-(isovaleryloxy)-alpha-(tert-butylaminomethyl)benzyl alcohol methanesulfonate]
ED50 [2]: 1.4 µg (base) | Duration, Mean ([2]; dose 2.4 mcg (base)): 12 ± 2.5 min | solubility [3]: ≥ 50 mg/mL

solubility [3]: ≥ 50 mg/mL
Structure (SMILES): CC(C)CC(=O)Oc1cc(C(O)CNC(C)(C)C)ccc1OC(=O)C(C)(C)C.Cl (stereo not drawn) [Example 71, 3-(isovaleryloxy)-4-(pivalyloxy)-alpha-(tert-butylaminomethyl)benzylalcohol hydrochloride]
ED50 [2]: 0.63 µg (base) | Duration, Mean ([2]; dose 2 mcg (base)): 26 min
